According to US9809602B2, “Compounds for treating viral infections” (INSTITUT PASTEUR KOREA, priority 2014, dated 2017):

The compounds below were run on genotype 1/2 chimeric cell culture derived HCV (HCVcc) (assay: Genotype 1/2 chimeric HCVcc assay (nano-luciferase, HCV replication)). Conditions: Hepatitis C virus.
Assay type: cell-based
Method in brief: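 Huh-7.5 cells (2400/well) pretreated 2 h with serially diluted compound, then infected with nano-luciferase genotype 1a/2a (JFH-1) chimeric HCVcc. At 72 h post infection, nano-luciferase reported replication and cellular ATP reported cytotoxicity; EC50 and CC50 by non-linear regression.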

First: O=C(NCCCN1CCC(N2CCCCC2)CC1)c1ccc(-c2ccc3cc[nH]c3c2)cc1 [Compound 1121]
Second: Cc1cccc(-c2ccc(C(=O)NCCCN3CCC(N4CCCCC4)CC3)cc2)c1 [Compound 1014]
The EC50 of the first is lower: 100 to 1000 nM for the first, 1000 to 10000 nM for the second. The first is the more potent here.

O=C(NCCCN1CCC(N2CCCCC2)CC1)c1ccc(-c2ccc(C(F)(F)F)nc2)cc1 [Compound 1101] and O=C(NCCCN1CCC(N2CCCCC2)CC1)c1ccc(-c2ccc(OC(F)(F)F)cc2)cc1 [Compound 1119] fall in the same range of EC50: 100 to 1000 nM for the first, 100 to 1000 nM for the second.

Cc1ccc(-c2ccc(S(=O)(=O)NCCCN3CCC(N4CCCCC4)CC3)cc2)cc1 [Compound 1098] and O=S(=O)(NCCCN1CCC(N2CCCCC2)CC1)c1ccc(-c2ccc(F)cc2)cc1 [Compound 1096] fall in the same range of EC50: 100 to 1000 nM for the first, 100 to 1000 nM for the second.

N#Cc1cccc(-c2ccc(C(=O)NCCCN3CCC(N4CCCCC4)CC3)cc2)c1 [Compound 1150] and COc1cccc(-c2ccc(C(=O)NCCCN3CCC(N4CCCCC4)CC3)cc2)c1 [Compound 1018] fall in the same range of EC50: 100 to 1000 nM for the first, 100 to 1000 nM for the second.

First: O=C(NCCCN1CCC(N2CCCCC2)CC1)c1ccc(N2CCOCC2)cc1 [Compound 1029]
Second: O=C(NCCCN1CCC(N2CCCCC2)CC1)c1ccc(-c2ccc(CN3CCOCC3)cc2)cc1 [Compound 1138]
The EC50 of the first is higher: greater than 10000 nM for the first, 1000 to 10000 nM for the second.

First: O=C(NCCCN1CCN(C(=O)C2CCCCC2)CC1)c1ccc(Oc2ccccc2)cc1 [Compound 1038]
Second: O=C(NCCCN1CCC(NC2CCCCC2)CC1)c1ccc(Oc2ccccc2)cc1 [Compound 1079]
The EC50 of the first is higher: greater than 10000 nM for the first, 100 to 1000 nM for the second.

First: Cc1cc(NCCCN2CCC(N3CCCCC3)CC2)n2nc(-c3ccccc3)cc2n1 [Compound 1103]
Second: O=C(NCCCN1CCC(N2CCCCC2)CC1)c1ccccc1-c1ccccc1 [Compound 1011]
The EC50 of the first is lower: 1000 to 10000 nM for the first, greater than 10000 nM for the second. The first is the more potent here.

CN1CCC(C2CCN(CCCNC(=O)c3ccc(Oc4ccccc4)cc3)CC2)CC1 [Compound 1065] and O=C(NCCCN1CCC(N2CCCCC2)CC1)c1ccc(-c2ccc(F)cc2F)cc1 [Compound 1134] fall in the same range of EC50: 100 to 1000 nM for the first, 100 to 1000 nM for the second.

First: O=C(NCCCN1CCC(N2CCCCC2)CC1)c1ccc2c(c1)NC(=O)c1ccccc1S2 [Compound 1066]
Second: COc1cc(NC(=O)CCCN2CCC(N3CCCCC3)CC2)ccc1-c1ccc(C(F)(F)F)cc1 [Compound 1157]
The EC50 of the first is higher: 1000 to 10000 nM for the first, 100 to 1000 nM for the second. The second is the more potent here.

O=C(CCCN1CCC(N2CCCCC2)CC1)Nc1ccc(-c2ccc(C(F)(F)F)cc2)nc1 [Compound 1116] and O=S(=O)(NCCCCN1CCC(N2CCCCC2)CC1)c1ccc(-c2ccc(C(F)(F)F)cc2)cc1 [Compound 1095] fall in the same range of EC50: 100 to 1000 nM for the first, 100 to 1000 nM for the second.

Same assay, conditions: Hepatitis C virus, Huh7.5, 72 h

Cc1sc(NC(=O)NCc2c(C(F)(F)F)sc3c2CCN(C)C3)c(C(=O)OC(C)C)c1C [Compound 295] and Cc1sc(NC(=O)NCc2c(Br)sc3c2CCN(C)C3)c(C(=O)OC(C)C)c1C [Compound 297] cannot be ordered by EC50: less than 100 nM for the first, less than 100 nM for the second.

Cc1nnc(-c2c(NC(=O)NCc3c(-n4cccc4)sc4c3CCN(C)C4)sc3c2CCCC3)o1 [Compound 65] and CCOC(=O)c1c(NC(=O)NCc2c(-n3cccc3)sc3c2CCN(C)C3)sc2c1CCCC2 [Compound 67] cannot be ordered by EC50: less than 100 nM for the first, less than 100 nM for the second.

First: CCOC(=O)c1c(NC(=O)NC(C)c2c(-n3cccc3)sc3c2CCN(CC)C3)sc2c1CCCC2 (centres unmarked) [Compound 1]
Second: CCN1CCc2c(sc(-n3cccc3)c2CNC(=O)Nc2sc3c(c2C(=O)NNC(C)C)CCCC3)C1 [Compound 209]
The EC50 of the first is higher: 100 to 1000 nM for the first, less than 100 nM for the second.

First: CCOC(=O)c1c(NC(=O)NCc2c(N3CCOCC3)sc3c2CCNC3)sc2c1CCCC2 [Compound 54]
Second: CCOC(=O)c1c(NC(=O)NCc2c(C)sc3c2CCNC3)sc2c1CCCC2 [Compound 107]
The EC50 of the first is higher: 100 to 1000 nM for the first, less than 100 nM for the second. The second is the more potent here.

First: Cc1ccccc1-c1sc2c(c1CNC(=O)Nc1sc3c(c1C(=O)OC(C)(C)C)CCCC3)CCNC2 [Compound 250]
Second: CC(C)(C)OC(=O)c1c(NC(=O)NCc2c(-c3cccc(F)c3)sc3c2CCNC3)sc2c1CCCC2 [Compound 160]
The EC50 of the first is higher: 100 to 1000 nM for the first, less than 100 nM for the second. The second is the more potent here.

CN1CCc2c(sc(-n3cccc3)c2CNC(=O)Nc2sc3c(c2C(=O)OC(C)(C)C)CCCC3)C1 [Compound 68] and CC(C)(C)OC(=O)c1c(NC(=O)NCc2c(-n3cccc3)sc3c2CCN(CCO)C3)sc2c1CCCC2 [Compound 258] cannot be ordered by EC50: less than 100 nM for the first, less than 100 nM for the second.

CC(C)N1CCc2c(sc(C(F)(F)F)c2CNC(=O)Nc2sc3c(c2C(=O)OC(C)(C)C)CCCC3)C1 [Compound 186] and CC(C)(C)OC(=O)c1c(NC(=O)NCc2c(C(F)(F)F)sc3c2CCN(CCO)C3)sc2c1CCCC2 [Compound 373] cannot be ordered by EC50: less than 100 nM for the first, less than 100 nM for the second.

COc1sc(NC(=O)NCc2c(C(F)(F)F)sc3c2CCNC3)c(C(=O)OC(C)(C)C)c1C [Compound 371] and CC(C)(C)OC(=O)c1c(NC(=O)NCc2c(C(F)(F)F)sc3c2CCNC3)sc2c1CCC(O)C2 (centres unmarked) [Compound 349] cannot be ordered by EC50: less than 100 nM for the first, less than 100 nM for the second.

CCOC(=O)c1c(NC(=O)NCc2c(-n3cccc3)sc3c2CCN(CC)C3)sc2c1CC(C)CC2 (centres unmarked) [Compound 192] and CCOC(=O)c1c(NC(=O)NCc2c(-n3cccc3)sc3c2CCN(CC)C3)sc2c1CC(C)CC2C (centres unmarked) [Compound 205] cannot be ordered by EC50: less than 100 nM for the first, less than 100 nM for the second.

First: Cc1cncc(-c2sc3c(c2CNC(=O)Nc2sc4c(c2C(=O)OC(C)(C)C)CCCC4)CCNC3)c1 [Compound 322]
Second: CC(C)(C)OC(=O)c1c(NC(=O)NCc2c(-c3ccc(F)cc3)sc3c2CCNC3)sc2c1CCCC2 [Compound 159]
The EC50 of the first is higher: 100 to 1000 nM for the first, less than 100 nM for the second. The second is the more potent here.

First: CCOC(=O)c1c(NC(=O)NCc2c(-n3cccc3)sc3c2CCN(CC)C3)sc2ccccc12 [Compound 34]
Second: CCOC(=O)c1c(NC(=O)NCc2c(-n3cccc3)sc3c2CCN(CC)C3)sc(C)c1-c1ccc(F)cc1 [Compound 42]
The EC50 of the first is higher: 100 to 1000 nM for the first, less than 100 nM for the second. The second is the more potent here.

CCOC(=O)c1c(NC(=O)NCc2c(C(F)(F)F)sc3c2CCNC3)sc2c1CCOC2 [Compound 150] and CCOC(=O)c1c(NC(=O)NCc2c(Br)sc3c2CCNC3)sc2c1CCOC2 [Compound 163] cannot be ordered by EC50: less than 100 nM for the first, less than 100 nM for the second.

First: CCOC(=O)c1c(NC(=O)NCc2c(-n3cccc3)sc(C(=O)N(C)C)c2C)sc2c1CCCC2 [Compound 52]
Second: CCOC(=O)c1c(NC(=O)NCc2c(-n3cccc3)sc3c2CCN(C)C3)sc2c1C(C)CCC2 (centres unmarked) [Compound 152]
The EC50 of the first is higher: 100 to 1000 nM for the first, less than 100 nM for the second.

CN1CCc2c(sc(-n3cccc3)c2CNC(=O)Nc2sc3c(c2C(=O)OC(C)(C)C)CCOC3)C1 [Compound 236] and CC(C)(C)OC(=O)c1c(NC(=O)NCc2c(-n3cccc3)sc3c2CCNC3)sc2c1CCOC2 [Compound 319] cannot be ordered by EC50: less than 100 nM for the first, less than 100 nM for the second.

CC(C)OC(=O)c1c(NC(=O)NCc2c(-c3ccccc3)sc3c2CCNC3)sc2c1CCCC2 [Compound 226] and CC(C)(C)OC(=O)c1c(NC(=O)NCc2c(-c3ccco3)sc3c2CCNC3)sc2c1CCCC2 [Compound 340] cannot be ordered by EC50: less than 100 nM for the first, less than 100 nM for the second.

First: NC(=O)c1c(NC(=O)NCc2c(C(F)(F)F)sc3c2CCNC3)sc2c1CCCC2 [Compound 374]
Second: CC(C)(C)OC(=O)c1c(NC(=O)NCc2c(C(F)(F)F)sc3c2CCNC3)sc2c1CCCCC2 [Compound 245]
The EC50 of the first is higher: 1000 to 10000 nM for the first, less than 100 nM for the second.

Compared with Cc1sc(NC(=O)NCc2c(-c3cccc(Cl)c3)sc3c2CCN(CCN(C)C)C3)c(C(=O)OC(C)(C)C)c1C [Compound 365], Cc1sc(NC(=O)NCc2c(-c3cccc(Cl)c3)sc3c2CCNC3)c(C(=O)OC(C)(C)C)c1C [Compound 363] is lower in EC50: 100 to 1000 nM for the first, less than 100 nM for the second.

First: CCN1CCc2c(sc(-n3cccc3)c2CNC(=O)Nc2sc3c(c2C(=O)NCCCCN)CCCC3)C1 [Compound 91]
Second: CCN1CCc2c(sc(-n3cccc3)c2CNC(=O)Nc2sc3c(c2C(=O)NCCCCNC(=O)CCCCCN)CCCC3)C1 [Compound 88]
The EC50 of the first is lower: 100 to 1000 nM for the first, 1000 to 10000 nM for the second.

Compared with Cc1sc(NC(=O)NCc2c(-n3cccc3)sc3c2CCNC3)c(C(=O)OC(C)C)c1C [Compound 215], Cc1sc(NC(=O)C(=O)NCc2c(-n3cccc3)sc3c2CCNC3)c(C(=O)OC(C)(C)C)c1C [Compound 361] is higher in EC50: less than 100 nM for the first, 100 to 1000 nM for the second. The first is the more potent here.

CCN1CCc2c(sc(Br)c2CNC(=O)Nc2sc3c(c2C(=O)OC(C)(C)C)CCCC3)C1 [Compound 111] and CN1CCc2c(sc(Br)c2CNC(=O)Nc2sc3c(c2C(=O)OC(C)(C)C)CCCCC3)C1 [Compound 279] cannot be ordered by EC50: less than 100 nM for the first, less than 100 nM for the second.

CCOC(=O)c1c(NC(=O)NCc2ccc(CN(C)C)cc2)sc2c1CCCC2 [Compound 29] and CCOC(=O)c1c(NC(=O)NCc2ccc(CN(C)C)cc2Br)sc2c1CCCC2 [Compound 93] fall in the same range of EC50: 100 to 1000 nM for the first, 100 to 1000 nM for the second.

CCOC(=O)c1c(NC(=O)NCc2c(Br)sc3c2CCNC3)sc2c1CC(C)CC2 (centres unmarked) [Compound 193] and CCOC(=O)c1c(NC(=O)NCc2c(Br)sc3c2CCNC3)sc2c1CCC(F)(F)C2 [Compound 218] cannot be ordered by EC50: less than 100 nM for the first, less than 100 nM for the second.

Compared with O=C(NCc1c(-n2cccc2)sc2c1CCNC2)Nc1sc2c(c1C(=O)NCc1ccccc1)CCCC2 [Compound 82], COc1sc2c(c1CNC(=O)Nc1sc3c(c1C(=O)OC(C)(C)C)CCCC3)CCNC2 [Compound 126] is lower in EC50: 100 to 1000 nM for the first, less than 100 nM for the second. The second is the more potent here.

CCN1CCc2c(sc(-n3cccc3)c2CNC(=O)Nc2sc3c(c2C(=O)OC(C)(C)C)C(C)CCC3)C1 (centres unmarked) [Compound 292] and CCN1CCc2c(sc(-n3cccc3)c2CNC(=O)Nc2sc3c(c2C(=O)OC(C)(C)C)CCC(C)C3)C1 (centres unmarked) [Compound 211] cannot be ordered by EC50: less than 100 nM for the first, less than 100 nM for the second.

Compared with Cc1sc(NC(=O)NCc2c(C(F)(F)F)sc3c2CCN(CCN(C)C)C3)c(C(=O)OC(C)(C)C)c1C [Compound 367], CC(C)(C)OC(=O)c1c(NC(=O)NCc2c(-c3cc(F)cc(C(F)(F)F)c3)sc3c2CCNC3)sc2c1CCCC2 [Compound 246] is higher in EC50: less than 100 nM for the first, 1000 to 10000 nM for the second.

First: CCOC(=O)c1c(NC(=O)NCc2c(-n3cccc3)sc3c2CCN(CC)C3)sc2c1CCOC2 [Compound 41]
Second: CCN1CCc2c(sc(-n3cccc3)c2CNC(=O)Nc2sc3c(c2C(=O)NCCCCNC(=O)CCCCCNC(=O)OC(C)(C)C)CCCC3)C1 [Compound 92]
The EC50 of the first is lower: less than 100 nM for the first, 1000 to 10000 nM for the second.

O=C(NCc1c(C(F)(F)F)sc2c1CCNC2)Nc1sc2c(c1C(=O)OC1CCOCC1)CCCC2 [Compound 330] and CC(C)OC(=O)c1c(NC(=O)NCc2c(Br)sc3c2CC[N+](C)(C)C3)sc2c1CCCC2 [Compound 173] cannot be ordered by EC50: less than 100 nM for the first, less than 100 nM for the second.
